Structures can show the parent of a compound that is named as a salt.
Assays:
ddY male mice [1] = assay: Ameliorative activity against damage of cerebral hypoxia (reduced pressure); assay type: in vivo; settings: for Time required for stoppage of respiration: 30 minutes before, pressure reduced to 160 mmHg
Method: Thirty mg/kg each of compound (I) (lactate) and ifenprodil tartrate and 16 mg/kg of phentolamine, which is an a-adrenoceptor blocker, were intraperitoneally administered to ddY male mice, respectively. […] Time from start of reduction of pressure until stop of respiration in the mice was measured. The control group was drug-untreated.

isolated femoral artery [2] = assay: Relaxation of isolated femoral artery contracted by 50 mM KCl; assay type: cell-based, Mongrel dogs; settings: Canis lupus familiaris, 50 mM KCl contraction; for inhibition at 100 µM: 10^-4 M; for inhibition at 10 µM: 10^-5 M; for inhibition at 1 µM: 10^-6 M; for inhibition at 0.1 µM: 10^-7 M; for EC50: relaxation of isolated femoral artery, read-out: ED50 (the source's name)
Method: (§1) Mongrel dogs of either sex (body weight 10-17 kg) were killed by bleeding under anesthetization with pentobarbital sodium (tradename: Nembutai ® Abbott Co., USA). Thereafter, the basilar and femoral arteries were extracted and attached blood and connective tissues were carefully removed in a dish filled with Krebs bicarbonate solution (composition: NaCl 117.7 mM, KC1 4.7 mM, CaCl2 2.5 mM, MgSo4 1.2 mM, glucose 10 mM, NaHCO3 24.4 mM). Thereafter, ring preparations were made therefrom. This preparation was suspended in a bathing tube of 10 ml filled with Krebs bicarbonate solution aerated with 95 % 02 and 5 % C02.
(§2) Then, samples of basilar and femoral arteries were contracted by application of 50 mM KC1. After confirming that the contraction was sustained, (a) compound (I) (erythro form) lactate, (b) compound (I) (threo form) lactate and (c) ifenprodil; [2-(4-benzyl- piperidino-l-(4-hydroxyphenyl)propane-l-ol] tartrate were, respectively, administered as test compounds and the dose-relaxation response was examined.
(§3) A strain gauge transducer (model SB-lT manufactured by Nihon Koden Co.) was employed for recording of change of tension and isometric contraction was recorded on a recorder (model QPD 53 made by Hitachi Ltd . ) .

isolated basilar artery [3] = assay: Relaxation of isolated basilar artery contracted by 50 mM KCl; assay type: cell-based, Mongrel dogs; settings: Canis lupus familiaris, 50 mM KCl contraction; for inhibition at 1 µM: 10^-6 M; for inhibition at 0.1 µM: 10^-7 M; for inhibition at 0.01 µM: 10^-8 M; for EC50: relaxation of isolated basilar artery, read-out: ED50 (the source's name)
Method: as §1, §2, §3

ddY male mice [4] = assay: Prolongation of gasping time in complete cerebral ischemic (decapitated) animals; assay type: in vivo; settings: for Ratio of time (%): prolongation as compared with the control group; for Duration time of gasping: decapitated after 30 minutes
Method: After 30 minutes from administration, the.mice were decapitated and the duration time of gasping was measured. The control group was drug-untreated.

platelets of rabbit = assay: Fluidity of platelet membrane (fluorescence polarization); assay type: cell-based; set-up: Fluorescence polarization: unit not given here; settings: for Fluorescence polarization: fluidity increases as value decreases
Source text: The activity of compound (I) (lactate) and ifenprodil tartrate against the fluidity of platelet membrane was examined according to a known method (Biochimica et Biophysica Acta, vol. 798, page 210, 1984) using platelets of rabbit and using n-butyl alcohol as a positive control.

ddY male mice [5] = assay: Thromboembolic respiratory depression induced by ADP; assay type: in vivo; settings: ADP 40 mg/kg i.v.
Method: The degree of formation of platelet thrombi in the pulmonary vessels of mice induced by intravenous administration of ADP can be measured based on the decrease in the respiratory rate. The anti-platelet thrombotic action of test drugs can be evaluated by using this decrease in the respiratory rate as a standard. […] Relative respiratory rate (%) was calculated according to the following formula. [formula] (cf. "Thrombosis Research", Vol. 35, Page 311, 1984)

isolated basilar artery [6] = assay: PGF2α-induced 45Ca uptake in isolated basilar artery; assay type: cell-based, Mongrel dogs; settings: 10^-5 M + 10^-5 M PGF2α; PGF2α alone 166.2 ± 6.0
Source text: (§4) Using the isolated basilar artery and femoral artery treated in accordance with Test Example 2, the activity of (a) compound (I) (lactate), (b) ifenprodil tartrate and (c) verapamil hydrochloride against ^45Ca influx and ^45Ca uptake were examined by the conventional method (J. Membran. Biol., vol. 59, page 19, 1981).

isolated femoral artery [7] = assay: K-induced 45Ca influx in isolated femoral artery; assay type: cell-based, Mongrel dogs; settings: 10^-5 M + 50 mM KCl
Source text: as §4

isolated femoral artery [8] = assay: K-induced 45Ca uptake in isolated femoral artery; assay type: cell-based, Mongrel dogs; settings: 50 mM KCl alone 586.0 ± 17.9
Source text: as §4

isolated femoral artery [9] = assay: Ca antagonistic action: Ca-induced contraction in K-depolarized femoral artery; assay type: cell-based, Mongrel dogs; settings: Canis lupus familiaris, 0.25 h, 50 mM KCl, Ca-free bath, cumulative CaCl2, compound applied 15 minutes before, read-out: pA2 values on Ca-induced contraction in depolarized muscle by K (converted)
Method: (§5) The same measurements as in Test Example 2 were carried out using the isolated basilar artery and isolated femoral artery treated in accordance with the method of Test Example 2.
(§6) For examination of the Ca antagonistic action, the depolarization of both isolated arteries was induced with 50 mM KC1 in a bathing solution from which Ca had been removed and then CaCl2 was cumulatively applied thereto. As test compounds, (a) compound (I) (erythro form) lactate and (b) ifenprodil tartrate were applied at 15 minutes before addition of CaCl2.

α1-adrenoceptor = assay: Antagonism of phenylephrine (α1-agonist) contraction in saphenous vein; assay type: cell-based, Mongrel dogs; settings: α1 - agonist: phenylephrine; saphenous vein; 15 minutes treatment
Source text: (§7) In this experiment, phenylephrine and clonidine were used as al-agonist and a2-agonist, respectively, and these agonists were cumulatively applied to obtain a dose-response curve.

isolated coronary artery = assay: Relaxation of isolated coronary artery; assay type: cell-based, Mongrel dogs; settings: Canis lupus familiaris, read-out: ED50 (the source's name)
Method: as §1, §2, §3
Experiments were conducted in accordance with the method of Test Example 2 with use of the coronary artery in place of the basilar and femoral arteries. […]

isolated basilar artery [10] = assay: Ca antagonistic action: Ca-induced contraction in K-depolarized basilar artery; assay type: cell-based, Mongrel dogs; settings: Canis lupus familiaris, 0.25 h, 50 mM KCl, Ca-free bath, cumulative CaCl2, compound applied 15 minutes before, read-out: pA2 values on Ca-induced contraction in depolarized muscle by K (converted)
Method: as §5, §6

α2-adrenoceptor = assay: Antagonism of clonidine (α2-agonist) contraction in saphenous vein; assay type: cell-based, Mongrel dogs; settings: α2 - agonist: clonidine, non-competitive antagonism, 15 min
Source text: as §7

[11] = pre-incubation 15 min, 50 mM KCl alone 94.6 ± 5.2
[12] = pre-incubation 45 min, 50 mM KCl alone 98.4 ± 6.8

## Cc1ccc(N(CC2=NCCN2)c2cccc(O)c2)cc1 [Phentolamine]
ddY male mice [1]; 16 mg/kg intraperitoneally
  Time required for stoppage of respiration: 54.5 ± 2.9 s
ddY male mice [1]; i.p., 30 mg/kg compound (I) and ifenprodil tartrate, 16 mg/kg phentolamine
  effect on survival time (cerebral hypoxia): shortens it

## C[C@@H]([C@H](O)c1ccc(OCc2ccccc2)cc1)N1CCC(Cc2ccccc2)CC1 (relative stereo) [Compound (I) (erythro form) lactate]
Isolated femoral artery [2]; mean, n = 4 - 5
  inhibition at 100 µM: 85.8%
  inhibition at 10 µM: 59.9%
  inhibition at 1 µM: 34.2%
  inhibition at 0.1 µM: 1.2%
Isolated femoral artery [2]; 10^-8 M, mean, n = 4 - 5
  inhibition at 0.01 µM: 0.4%
Isolated femoral artery [2]
  EC50: 7200 nM
Isolated basilar artery [3]; mean, n = 4 - 5
  inhibition at 1 µM: 100%
  inhibition at 0.1 µM: 39.2%
  inhibition at 0.01 µM: 7%
Isolated basilar artery [3]
  EC50: 160 nM

## OC[C@H]1OC(O)[C@H](O)[C@@H](O)[C@@H]1O (stereo partly drawn) [Glucose]
ddY male mice [4]; 5.4 g/kg i.p.
  Ratio of time (%): 10.5%
ddY male mice [4]; 5.4 g/kg intraperitoneally
  Duration time of gasping: 23.1 ± 0.6 s

## CCCCO [n-Butyl alcohol, n-butyl alcohol]
Platelets of rabbit
  effect on fluidity of platelet membrane: an increase in the fluitidy of platelet membrane
Platelets of rabbit; 21 µM
  Fluorescence polarization: 7±5
Platelets of rabbit; 42 µM
  Fluorescence polarization: 6±5
Platelets of rabbit; 62 µM
  Fluorescence polarization: -14±2

## COc1ccc([C@@H]2Sc3ccccc3N(CCN(C)C)C(=O)[C@@H]2OC(C)=O)cc1 [Diltiazem-HCl]
ddY male mice [5]; 10 mg/kg oral, 1 hr after administration
  Relative respiratory rate (%): 56.3 ±8.5 (n=6) %
ddY male mice [5]; 10 mg/kg oral, 2 hr after administration
  Relative respiratory rate (%): 38.3 ±7.3 (n=7) %

## C[C@@H]([C@@H](O)c1ccc(OCc2ccccc2)cc1)N1CCC(Cc2ccccc2)CC1 (relative stereo) [Compound (I) (threo form) lactate]
Isolated femoral artery [2]; mean, n = 4 - 5
  inhibition at 100 µM: 62.3%
  inhibition at 10 µM: 22.5%
  inhibition at 1 µM: 6.8%
  inhibition at 0.1 µM: 0%
Isolated femoral artery [2]
  EC50: 51000 nM
Isolated basilar artery [3]; 10^-5 M, mean, n = 4 - 5
  inhibition at 10 µM: 100%
Isolated basilar artery [3]; mean, n = 4 - 5
  inhibition at 1 µM: 91.7%
  inhibition at 0.1 µM: 72.1%
  inhibition at 0.01 µM: 10.8%
Isolated basilar artery [3]
  EC50: 85 nM

## COc1ccc(CCN(C)CCCC(C#N)(c2ccc(OC)c(OC)c2)C(C)C)cc1OC (stereo not drawn) [Verapamil hydrochloride]
Isolated basilar artery [6]
  PGF2α-induced ^45Ca uptake in isolated basilar artery: 134.0 ± 4.1 n mol/g wt. tissue
Isolated femoral artery [7]; [11]
  K-induced ^45Ca influx in isolated femoral artery: 76.7 ± 2.0 n mol/g wt. tissue
Isolated femoral artery [7]; [12]
  K-induced ^45Ca influx in isolated femoral artery: 29.8 ± 2.8 n mol/g wt. tissue
Isolated femoral artery [7]; pre-incubation 135 min
  K-induced ^45Ca influx in isolated femoral artery: 64.1 ± 5.0 n mol/g wt. tissue
Isolated femoral artery [8]; 10^-5 M + 50 mM KCl
  K-induced ^45Ca uptake in isolated femoral artery: 344.7 ± 14.4 n mol/g wt. tissue

## CC(C)(CO)[C@@H](O)C(=O)NCCCC(=O)O [Calcium hopantenate]
ddY male mice [4]; 300 mg/kg i.p.
  Ratio of time (%): 10.5%
ddY male mice [4]; 300 mg/kg intraperitoneally
  Duration time of gasping: 23.1 ± 0.6 s

## CC(C(O)c1ccc(OCc2ccccc2)cc1)N1CCC(Cc2ccccc2)CC1 (stereo not drawn) [Compound (I) lactate]
Platelets of rabbit
  effect on fluidity of platelet membrane: an increase in the fluitidy of platelet membrane
Isolated femoral artery [9]
  Kb: 1550 nM
ddY male mice [1]; 30 mg/kg intraperitoneally
  Time required for stoppage of respiration: 126.1 ± 12.1 s
ddY male mice [4]; 3 mg/kg i.p.
  Ratio of time (%): 3.8%
ddY male mice [4]; 3 mg/kg intraperitoneally
  Duration time of gasping: 21.7 ± 0.4 s
ddY male mice [4]; 10 mg/kg i.p.
  Ratio of time (%): 27.8%
ddY male mice [4]; 10 mg/kg intraperitoneally
  Duration time of gasping: 26.7 ± 1.8 s
ddY male mice [4]; 30 mg/kg i.p.
  Ratio of time (%): 116.3%
ddY male mice [4]; 30 mg/kg intraperitoneally
  Duration time of gasping: 45.2 ± 3.5 s
α1-adrenoceptor
  pA2 value: pA2 = 7.03 ± 0.04
Isolated coronary artery
  EC50: 2200 nM
Isolated basilar artery [6]
  PGF2α-induced ^45Ca uptake in isolated basilar artery: 135.2 ± 12.7 (*) n mol/g wt. tissue
Isolated basilar artery [10]
  Kb: 18.6 nM
Isolated femoral artery [7]; [11]
  K-induced ^45Ca influx in isolated femoral artery: 106.2 ± 4.1 n mol/g wt. tissue
Isolated femoral artery [7]; [12]
  K-induced ^45Ca influx in isolated femoral artery: 38.2 ± 2.6 n mol/g wt. tissue
Isolated femoral artery [7]; pre-incubation 135 min
  K-induced ^45Ca influx in isolated femoral artery: 28.3 ± 1.1 n mol/g wt. tissue
α2-adrenoceptor
  pD2' value: pD2' = 4.87^Note 4)
Isolated femoral artery [8]; 10^-4 M + 50 mM KCl
  K-induced ^45Ca uptake in isolated femoral artery: 378.8 ± 27.9 n mol/g wt. tissue
Isolated femoral artery [8]; 10^-5 M + 50 mM KCl
  K-induced ^45Ca uptake in isolated femoral artery: 461.4 ± 26.7 n mol/g wt. tissue
Isolated femoral artery [8]; 10^-6 M + 50 mM KCl
  K-induced ^45Ca uptake in isolated femoral artery: 724.4 ± 32.4 n mol/g wt. tissue

## Clc1ccccc1CN1CCc2sccc2C1 [Ticlopidine-HCl]
ddY male mice [5]; 30 mg/kg oral, 1 hr after administration, Compound (I) = erythro form
  Relative respiratory rate (%): 49.3 ±4.3 (n=6) %
ddY male mice [5]; 30 mg/kg oral, 2 hr after administration, Compound (I) = erythro form
  Relative respiratory rate (%): 33.9 ±7.0 (n=7) %
ddY male mice [5]; 30 mg/kg oral, 3 hr after administration, Compound (I) = erythro form
  Relative respiratory rate (%): 37.2 ±10.5 (n=9) %

— EP0232423A1, “CIRCULATION IMPROVING AGENT” (GRELAN PHARMACEUTICAL CO., LTD., priority 1985, dated 1987)
